Laboratory results as given in ChEMBL document CHEMBL5579836, “Extensive targeting of chemical space at the prime side of ketoamide inhibitors of rhomboid proteases by branched substituents empowers their selectivity and potency” (Eur J Med Chem, 2024).
Starred links: 1 amine or outer side, 2 acyl side, 3 side chain; linkers in the order of their positions; H or OH if unused. Non-standard residues stand in square brackets, D forms with d. Residues, ends and D or L forms follow the SMILES beside them. *: point of attachment. Pheol(OBn) = c1ccc(COC[C@H](Cc2ccccc2)N*)cc1; NH(4-phenylbutyl) = c1ccc(CCCCN*)cc1; X1 = C[C@H](N[*:1])C(=O)C(=O)[*:2]

Legend:
[1] = target: T1, Rhomboid protease GlpG (Escherichia coli (strain K12), UniProt P09391); experiment: Inhibition of Escherichia coli GlpG extracted from Escherichia coli C43(DE3) using KSp96 as substrate incubated for 1 hr by fluorescence based assay; conditions: for Ki: read-out: Ki(app)
T1 sequence (P09391 whole entry): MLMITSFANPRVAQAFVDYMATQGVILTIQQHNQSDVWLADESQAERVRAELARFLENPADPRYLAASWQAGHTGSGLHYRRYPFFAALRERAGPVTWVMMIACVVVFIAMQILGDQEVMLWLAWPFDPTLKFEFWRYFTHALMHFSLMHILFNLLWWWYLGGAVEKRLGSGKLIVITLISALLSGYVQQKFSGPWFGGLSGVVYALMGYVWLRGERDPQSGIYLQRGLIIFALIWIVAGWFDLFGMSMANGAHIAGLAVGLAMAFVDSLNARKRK

[2] = Inhibition of Strep-tagged recombinant human RHBDL2 extracted from Expi293 cells using KSp118 as substrate incubated for 1 hr by fluorescence based assay; format: cell-free
[3] = target: T1, Rhomboid protease GlpG; experiment: Inhibition of GlpG in wild-type Escherichia coli MC4100 using MBP-Flag-LacYTMD2-Trx as substrate
[4] = Selectivity index, ratio of IC50 for rhomboid (unknown origin) to IC50 for Strep-tagged recombinant human RHBDL2 extracted from Expi293 cells using KSp118 as substrate
[5] = Selectivity index, ratio of IC50 for rhomboid (unknown origin) to IC50 for recombinant human PARL using KSp106 as substrate
[6] = Selectivity index, ratio of IC50 for rhomboid (unknown origin) to IC50 for Escherichia coli GlpG extracted from Escherichia coli C43(DE3) using KSp96 as substrate
[7] = target: T2, Presenilin-associated rhomboid-like protein, mitochondrial (Homo sapiens, UniProt Q9H300); experiment: Inhibition of tetracycline-inducible FLAG-tagged human PARL stably transfected in HEK293T harboring FITR/PARL KO; format: cell-based
T2 sequence (Q9H300 whole entry): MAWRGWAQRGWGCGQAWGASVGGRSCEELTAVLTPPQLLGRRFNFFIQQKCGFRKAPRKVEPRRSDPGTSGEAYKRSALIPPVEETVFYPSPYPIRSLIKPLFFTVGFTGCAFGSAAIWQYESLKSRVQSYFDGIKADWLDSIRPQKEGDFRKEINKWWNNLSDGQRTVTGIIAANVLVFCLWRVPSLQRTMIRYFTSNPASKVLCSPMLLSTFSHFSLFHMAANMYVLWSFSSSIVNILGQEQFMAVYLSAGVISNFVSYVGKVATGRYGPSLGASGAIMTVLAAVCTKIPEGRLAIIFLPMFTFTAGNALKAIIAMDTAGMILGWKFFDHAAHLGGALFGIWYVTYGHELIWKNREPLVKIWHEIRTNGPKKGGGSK

IC50 [1] [nM]	IC50 [2] [nM]	EC50 [3] [nM]	Compound	further results
330	712	–	CC(=O)N1CCC[C@H]1C(=O)N[C@H](C(=O)N[C@@H](C)C(=O)N[C@@H](CCCCN)C(=O)N[C@@H](C)C(=O)C(=O)NCCCCc1ccccc1)C(C)C (Ac-PVAK[X1]-{NH(4-phenylbutyl)})	–
2.3	–	337	CC(C)CC(=O)N[C@@H](CCCNC(=N)N)C(=O)N[C@@H](Cc1c[nH]cn1)C(=O)N[C@@H](C)C(=O)C(=O)N[C@H](COCc1ccccc1)Cc1ccccc1	–
2.3	–	123	CC(=O)N[C@H](C(=O)N[C@@H](CCCNC(=N)N)C(=O)N[C@@H](Cc1c[nH]cn1)C(=O)N[C@@H](C)C(=O)C(=O)NC(CCCc1ccccc1)Cc1ccccc1)C(C)C (mixture of isomers)	Ki [1]: 1.3 nM
–	236	–	CC(C)CC(=O)N[C@H](C(=O)N[C@@H](C)C(=O)N[C@@H](CCCCN)C(=O)N[C@@H](C)C(=O)C(=O)NCCCCc1ccccc1)C(C)C	–
44.4	6210	1470	CC(=O)N[C@H](C(=O)N[C@@H](CCCNC(=N)N)C(=O)N[C@@H](Cc1c[nH]cn1)C(=O)N[C@@H](C)C(=O)C(=O)NCCCCc1ccccc1)C(C)C	–
5.6	768	–	CC(=O)N1CCC[C@H]1C(=O)N[C@H](C(=O)N[C@@H](C)C(=O)N[C@@H](CCCCN)C(=O)N[C@@H](C)C(=O)C(=O)N[C@H](COCc1ccccc1)Cc1ccccc1)C(C)C (Ac-PVAK[X1]-{Pheol(OBn)})	–
1.9	–	131	CCCCc1ccc(OCC[C@H](Cc2ccccc2)NC(=O)C(=O)[C@H](C)NC(=O)[C@H](Cc2c[nH]cn2)NC(=O)[C@H](CCCNC(=N)N)NC(=O)[C@@H](NC(C)=O)C(C)C)cc1	Ki [1]: 0.7 nM
56.1	–	1610	CC(=O)N[C@H](C(=O)N[C@@H](CCCNC(=N)N)C(=O)N[C@@H](Cc1c[nH]cn1)C(=O)N[C@@H](C)C(=O)C(=O)NCCc1ccccc1)C(C)C	–
14.8	55500	–	CC(=O)N[C@@H](C)C(=O)N[C@H](C(=O)N[C@@H](Cc1ccccc1)C(=O)N[C@@H](CC(C)C)C(=O)N[C@@H](C)C(=O)C(=O)N[C@H](COCc1ccccc1)Cc1ccccc1)C(C)C (Ac-AVFL[X1]-{Pheol(OBn)})	–
300	32800	–	CC(=O)N[C@@H](C)C(=O)N[C@H](C(=O)N[C@@H](Cc1ccccc1)C(=O)N[C@@H](CC(C)C)C(=O)N[C@@H](C)C(=O)C(=O)NCCCCc1ccccc1)C(C)C (Ac-AVFL[X1]-{NH(4-phenylbutyl)})	Ratio IC50 [4]: 1150; Ratio IC50 [5]: 1; Ratio IC50 [6]: 10.6; EC50 [7]: 445 nM
2	–	424	C[C@H](NC(=O)[C@H](Cc1c[nH]cn1)NC(=O)[C@H](CCCNC(=N)N)NC(=O)CCc1ccccc1)C(=O)C(=O)N[C@H](COCc1ccccc1)Cc1ccccc1	–

Compound	IC50 [1] [nM]	IC50 [2] [nM]	EC50 [3] [nM]	further results
CC(=O)N[C@H](C(=O)N[C@@H](CCCNC(=N)N)C(=O)N[C@@H](Cc1c[nH]cn1)C(=O)N[C@@H](C)C(=O)C(=O)N[C@H](COCc1ccccc1)Cc1ccccc1)C(C)C	2.5	5390	173	Ki [1]: 1.4 nM
